Measured values reported in ChEMBL document CHEMBL1201862, “PubChem BioAssay data set” (2004).
Calls of active or inactive are those of the source.

Legend:
Type in all cases: functional
[1] = molecular target: Induced myeloid leukemia cell differentiation protein Mcl-1 (Homo sapiens, UniProt Q07820)
Vero = Vero cell cytotoxicity, cytotoxicity control for flavivirus capping enzyme inhibitors (AID 588742); conditions: Chlorocebus sabaeus
[2] = molecular target: Glucose-6-phosphate 1-dehydrogenase (Homo sapiens, UniProt P11413); assay: human G6PD enzyme inhibitors, dose response, selectivity assay for P. falciparum G6PD inhibitor project, biochemical, fluorescence (AID 504792)
Sequence of Glucose-6-phosphate 1-dehydrogenase (P11413 whole entry): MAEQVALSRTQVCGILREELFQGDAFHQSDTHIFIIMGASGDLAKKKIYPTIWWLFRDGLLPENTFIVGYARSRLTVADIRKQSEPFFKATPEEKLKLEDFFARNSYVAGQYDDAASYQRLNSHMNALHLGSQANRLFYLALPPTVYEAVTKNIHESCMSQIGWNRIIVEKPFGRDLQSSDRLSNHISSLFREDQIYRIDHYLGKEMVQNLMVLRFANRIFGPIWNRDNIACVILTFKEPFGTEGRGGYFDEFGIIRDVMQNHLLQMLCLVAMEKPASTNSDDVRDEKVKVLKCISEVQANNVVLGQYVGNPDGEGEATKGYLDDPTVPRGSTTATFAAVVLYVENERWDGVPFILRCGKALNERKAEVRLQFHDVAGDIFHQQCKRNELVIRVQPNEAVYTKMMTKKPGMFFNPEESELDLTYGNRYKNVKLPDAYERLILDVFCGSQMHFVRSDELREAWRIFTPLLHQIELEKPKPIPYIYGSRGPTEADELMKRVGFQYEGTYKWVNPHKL

[3] = molecular target: T1, Sentrin-specific protease 6 (Homo sapiens, UniProt Q9GZR1);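 further: Luminescence-based dose-response confirmatory assay of SENP6 inhibition, following up an ultra-high-throughput screen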
T1 sequence (Q9GZR1 whole entry): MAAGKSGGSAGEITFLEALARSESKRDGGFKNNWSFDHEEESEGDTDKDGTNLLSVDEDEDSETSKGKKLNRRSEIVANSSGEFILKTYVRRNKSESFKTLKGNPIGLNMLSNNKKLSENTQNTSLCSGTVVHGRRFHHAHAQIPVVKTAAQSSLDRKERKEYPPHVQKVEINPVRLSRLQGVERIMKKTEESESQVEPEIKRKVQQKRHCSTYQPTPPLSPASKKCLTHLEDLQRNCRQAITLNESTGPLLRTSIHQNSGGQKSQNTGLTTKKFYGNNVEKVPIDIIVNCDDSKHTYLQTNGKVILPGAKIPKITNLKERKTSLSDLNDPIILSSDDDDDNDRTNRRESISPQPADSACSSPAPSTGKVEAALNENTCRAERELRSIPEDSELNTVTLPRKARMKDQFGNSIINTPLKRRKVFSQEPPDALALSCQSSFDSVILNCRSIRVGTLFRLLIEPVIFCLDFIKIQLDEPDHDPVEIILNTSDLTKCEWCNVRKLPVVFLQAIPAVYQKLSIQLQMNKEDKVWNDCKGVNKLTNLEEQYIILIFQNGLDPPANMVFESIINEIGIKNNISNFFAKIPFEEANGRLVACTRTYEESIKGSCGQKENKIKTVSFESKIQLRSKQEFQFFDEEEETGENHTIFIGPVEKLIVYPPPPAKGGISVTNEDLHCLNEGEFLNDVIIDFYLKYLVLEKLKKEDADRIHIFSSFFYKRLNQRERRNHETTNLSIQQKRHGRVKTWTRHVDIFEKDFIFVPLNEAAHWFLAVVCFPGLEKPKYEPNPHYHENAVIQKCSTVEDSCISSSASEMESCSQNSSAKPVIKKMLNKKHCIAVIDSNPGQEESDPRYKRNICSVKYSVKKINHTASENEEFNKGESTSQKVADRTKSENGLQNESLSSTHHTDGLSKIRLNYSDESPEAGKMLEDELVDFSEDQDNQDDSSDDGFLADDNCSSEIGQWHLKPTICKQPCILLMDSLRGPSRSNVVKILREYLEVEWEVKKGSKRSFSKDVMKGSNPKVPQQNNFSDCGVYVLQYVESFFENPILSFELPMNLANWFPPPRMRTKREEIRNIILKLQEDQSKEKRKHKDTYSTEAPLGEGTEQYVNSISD

[4] = molecular target: T2, Sentrin-specific protease 8 (Homo sapiens, UniProt Q96LD8)
T2 sequence (Q96LD8 whole entry): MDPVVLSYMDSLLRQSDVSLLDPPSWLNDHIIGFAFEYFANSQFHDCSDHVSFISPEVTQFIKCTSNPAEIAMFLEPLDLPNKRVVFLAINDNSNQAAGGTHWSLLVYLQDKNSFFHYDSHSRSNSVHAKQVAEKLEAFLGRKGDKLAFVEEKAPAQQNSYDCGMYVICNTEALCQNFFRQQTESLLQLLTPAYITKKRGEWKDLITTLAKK

[5] = molecular target: T3, Endoribonuclease toxin MazF (Escherichia coli K-12, UniProt P0AE70); assay: MazF toxin RNase activators, dose response, biochemical, fluorescence, single-stranded RNA substrate, uHTS hits (AID 588481)
T3 sequence (P0AE70 whole entry): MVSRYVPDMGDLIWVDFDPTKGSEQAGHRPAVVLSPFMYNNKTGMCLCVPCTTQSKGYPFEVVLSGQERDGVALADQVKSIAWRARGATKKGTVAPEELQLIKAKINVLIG

[6] = molecular target: Acetyl-CoA acetyltransferase/HMG-CoA reductase (Enterococcus faecalis, UniProt Q9FD70); assay: inhibitors of E. faecalis class II HMGR, confirmation, biochemical, Enterococcus faecalis (AID 1233)
[7] = molecular target: T2, Sentrin-specific protease 8; remark: listed apart in the source

Sequence of Induced myeloid leukemia cell differentiation protein Mcl-1 (Q07820 whole entry): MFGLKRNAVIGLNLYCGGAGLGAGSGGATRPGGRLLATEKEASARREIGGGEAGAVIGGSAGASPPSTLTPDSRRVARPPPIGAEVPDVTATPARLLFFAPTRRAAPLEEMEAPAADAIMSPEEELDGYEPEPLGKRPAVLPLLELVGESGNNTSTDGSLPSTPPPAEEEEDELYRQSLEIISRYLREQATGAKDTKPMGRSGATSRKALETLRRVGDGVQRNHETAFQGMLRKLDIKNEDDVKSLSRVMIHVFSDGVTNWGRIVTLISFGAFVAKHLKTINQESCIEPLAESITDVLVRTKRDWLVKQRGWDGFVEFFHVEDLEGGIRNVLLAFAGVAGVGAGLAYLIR

For Cc1cccc(NC2=C(NC(=O)c3ccccc3)C(=O)c3ccccc3C2=O)c1, the IC50 [1] was 2.86 µM (active), the CC50 (Vero) was > 40 µM (active) and the IC50 [2] was > 80 µM (inactive).

In the case of CC(C)=CCC1=C(OCC(=O)O)C(=O)c2ccccc2C1=O, the IC50 [3] is reported as 2.53 µM (active) and the IC50 [4] is reported as 3.91 µM (active).

Cc1[nH][nH]c(=O)c1C(c1c(C)[nH][nH]c1=O)c1cn(Cc2ccccc2Cl)c2ccccc12 was tested, and the EC50 [5] was > 99 µM (inactive), the IC50 [6] was 91 µM (active) and the IC50 [7] was 4.89 µM (active).
